Assay results: patent US20250145665A1, “MACROCYCLIC PEPTIDES USEFUL AS MODULATORS OF TNF ALPHA” (Bristol-Myers Squibb Company, priority 2023, published 2025)
Positions of bridges follow the written chain, without caps; N, C: chain ends. Non-standard residues stand in square brackets, D forms with d. Residues, ends and D or L forms follow the SMILES beside them. Pro(trans-4-Ph) = O=C(O)[C@@H]1C[C@@H](c2ccccc2)CN1; Pro(cis-4-Ph) = O=C(O)[C@@H]1C[C@H](c2ccccc2)CN1; Ala(morpholin-4-yl) = N[C@@H](CN1CCOCC1)C(=O)O; Asp(3,3-Me2) = CC(C)(C(=O)O)[C@H](N)C(=O)O; Bip = N[C@@H](Cc1ccc(-c2ccccc2)cc1)C(=O)O; Phe(4-NH2) = Nc1ccc(C[C@H](N)C(=O)O)cc1; Val(3-OH) = CC(C)(O)[C@H](N)C(=O)O; 2Pal = N[C@@H](Cc1ccccn1)C(=O)O; 3Pal = N[C@@H](Cc1cccnc1)C(=O)O; d(αMeP) = C[C@]1(C(=O)O)CCCN1; Sar = CNCC(=O)O

Molecular target: TNFα (Homo sapiens, UniProt P01375)
Sequence (P01375 77-233 limits assumed): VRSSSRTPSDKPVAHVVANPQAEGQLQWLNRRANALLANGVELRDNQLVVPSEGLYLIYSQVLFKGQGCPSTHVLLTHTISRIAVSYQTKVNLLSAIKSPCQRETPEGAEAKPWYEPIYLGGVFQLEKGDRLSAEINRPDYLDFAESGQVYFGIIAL
Assay: TNF-Induced HEK-Blue Assay
Type: cell-based
Conditions: HEK-Blue-CD40L cells, NF-kB-driven secreted alkaline phosphatase reporter; TNFα 0.5 ng/ml; 18 h; read-out: TNF induced HEK-Blue assay IC50 value

`CC(C)C[C@@H]1NC(=O)[C@H](Cc2ccc(O)cc2)NC(=O)[C@H](C(C)C)NC(=O)[C@@H]2CCCN2C(=O)[C@H](C(C)C)NC(=O)[C@@H](CCCNC(=N)N)NC(=O)[C@H](CC(=O)O)NC(=O)[C@@H]2C[C@H](c3ccccc3)CN2C(=O)CN(C)C(=O)[C@H](Cc2ccc(-c3ccccc3)cc2)NC(=O)[C@H](Cc2ccc(-c3ccccc3)cc2)NC(=O)[C@H](CN2CCOCC2)NC(=O)CSC[C@@H](C(=O)NCC(N)=O)NC1=O` [Example 98] ({CH2CO}-[Ala(morpholin-4-yl)][Bip][Bip][Sar][Pro(cis-4-Ph)]D[dR]VPVYLCG-NH2; thioether N-13) showed an IC50 of 50 to 200 nM.
For `CC(C)C[C@@H]1NC(=O)[C@H](Cc2ccc(O)cc2)NC(=O)[C@H](C(C)C)NC(=O)[C@@H]2CCCN2C(=O)[C@H](C(C)C)NC(=O)[C@@H](CCCNC(=N)N)NC(=O)[C@H](CC(=O)O)NC(=O)[C@@H]2C[C@@H](c3ccccc3)CN2C(=O)CN(C)C(=O)[C@H](Cc2ccc(-c3ccccc3)cc2)NC(=O)[C@H](Cc2ccc(-c3ccccc3)cc2)NC(=O)[C@H](CN2CCOCC2)NC(=O)CSC[C@@H](C(=O)NCC(N)=O)NC1=O` [Example 99] ({CH2CO}-[Ala(morpholin-4-yl)][Bip][Bip][Sar][Pro(trans-4-Ph)]D[dR]VPVYLCG-NH2; thioether N-13), the IC50 was 200 to 2000 nM.
Compound `CC(C)C[C@@H]1NC(=O)[C@H](Cc2ccc(O)cc2)NC(=O)[C@H](C(C)C)NC(=O)[C@@H]2CCCN2C(=O)[C@H](C(C)C)NC(=O)[C@H](CCCNC(=N)N)NC(=O)[C@H](C(C)(C)C(=O)O)NC(=O)[C@H](Cc2ccc(O)cc2)NC(=O)CN(C)C(=O)[C@H](Cc2ccc(-c3ccccc3)cc2)NC(=O)[C@H](Cc2ccc(-c3ccccc3)cc2)NC(=O)[C@H](CN2CCOCC2)NC(=O)CSC[C@@H](C(=O)NCC(N)=O)NC1=O` [Example 100] ({CH2CO}-[Ala(morpholin-4-yl)][Bip][Bip][Sar]Y[Asp(3,3-Me2)]RVPVYLCG-NH2; thioether N-13) has an IC50 of 200 to 2000 nM.
Compound `CC(C)C[C@@H]1NC(=O)[C@H](Cc2ccc(O)cc2)NC(=O)[C@H](C(C)C)NC(=O)[C@@H]2CCCN2C(=O)[C@H](C(C)C)NC(=O)[C@H](CCCNC(=N)N)NC(=O)[C@H](CC(=O)O)NC(=O)[C@@]2(C)CCCN2C(=O)CN(C)C(=O)[C@H](Cc2ccc(-c3ccccc3)cc2)NC(=O)[C@H](Cc2ccc(-c3ccccc3)cc2)NC(=O)[C@H](CN2CCOCC2)NC(=O)CSC[C@@H](C(=O)NCC(N)=O)NC1=O` [Example 101] ({CH2CO}-[Ala(morpholin-4-yl)][Bip][Bip][Sar][d(αMeP)]DRVPVYLCG-NH2; thioether N-13) has an IC50 of 50 to 200 nM.
`CC(C)C[C@@H]1NC(=O)[C@H](Cc2ccc(O)cc2)NC(=O)[C@H](C(C)C)NC(=O)[C@@H]2CCCN2C(=O)[C@H](C(C)C)NC(=O)[C@@H](CCCNC(=N)N)NC(=O)[C@H](CC(=O)O)NC(=O)[C@@]2(C)CCCN2C(=O)CN(C)C(=O)[C@H](Cc2ccc(-c3ccccc3)cc2)NC(=O)[C@H](Cc2ccc(-c3ccccc3)cc2)NC(=O)[C@H](CN2CCOCC2)NC(=O)CSC[C@@H](C(=O)NCC(N)=O)NC1=O` [Example 102] ({CH2CO}-[Ala(morpholin-4-yl)][Bip][Bip][Sar][d(αMeP)]D[dR]VPVYLCG-NH2; thioether N-13) was tested, and the IC50 was 200 to 2000 nM.
In the case of `CC(C)C[C@@H]1NC(=O)[C@H](CCCNC(=N)N)NC(=O)[C@H](C(C)C)NC(=O)[C@@H]2CCCN2C(=O)[C@H](C(C)C)NC(=O)[C@@H](CCCNC(=N)N)NC(=O)[C@H](CC(=O)O)NC(=O)[C@@]2(C)CCCN2C(=O)CN(C)C(=O)[C@H](Cc2ccc(-c3ccccc3)cc2)NC(=O)[C@H](Cc2ccc(-c3ccccc3)cc2)NC(=O)[C@H](CN2CCOCC2)NC(=O)CSC[C@@H](C(=O)NCC(N)=O)NC1=O` [Example 103] ({CH2CO}-[Ala(morpholin-4-yl)][Bip][Bip][Sar][d(αMeP)]D[dR]VPVRLCG-NH2; thioether N-13), the IC50 is reported as 200 to 2000 nM.
`CC(C)C[C@@H]1NC(=O)[C@H](CCCNC(=N)N)NC(=O)[C@H](Cc2ccccc2)NC(=O)[C@@H]2CCCN2C(=O)[C@H](C(C)C)NC(=O)[C@@H](CCCNC(=N)N)NC(=O)[C@H](CC(=O)O)NC(=O)[C@@H]2CCCN2C(=O)CN(C)C(=O)[C@H](Cc2ccc(-c3ccccc3)cc2)NC(=O)[C@H](Cc2ccc(-c3ccccc3)cc2)NC(=O)[C@H](CN2CCOCC2)NC(=O)CSC[C@@H](C(=O)NCC(N)=O)NC1=O` [Example 104] ({CH2CO}-[Ala(morpholin-4-yl)][Bip][Bip][Sar]PD[dR]VPFRLCG-NH2; thioether N-13) showed an IC50 of 200 to 2000 nM.
With `CC(C)C[C@@H]1NC(=O)[C@H](Cc2ccc(O)cc2)NC(=O)[C@H](C(C)C)NC(=O)[C@H](Cc2cccnc2)NC(=O)[C@H](C(C)C)NC(=O)[C@H](CCCNC(=N)N)NC(=O)[C@H](CC(=O)O)NC(=O)[C@H](Cc2ccc(O)cc2)NC(=O)CN(C)C(=O)[C@H](Cc2ccc(-c3ccccc3)cc2)NC(=O)[C@H](Cc2ccc(-c3ccccc3)cc2)NC(=O)[C@H](C(C)(C)O)NC(=O)CSC[C@@H](C(=O)NCC(N)=O)NC1=O` [Example 106] ({CH2CO}-[Val(3-OH)][Bip][Bip][Sar]YDRV[3Pal]VYLCG-NH2; thioether N-13) the IC50 was 50 to 200 nM.
With `CC(C)C[C@@H]1NC(=O)[C@H](Cc2ccc(O)cc2)NC(=O)[C@H](C(C)C)NC(=O)[C@H](Cc2cccnc2)NC(=O)[C@H](C(C)C)NC(=O)[C@H](CCCNC(=N)N)NC(=O)[C@H](CC(=O)O)NC(=O)[C@H](Cc2ccc(O)cc2)NC(=O)CN(C)C(=O)[C@H](Cc2ccc(-c3ccccc3)cc2)NC(=O)[C@H](Cc2ccc(-c3ccccc3)cc2)NC(=O)[C@H](CN2CCOCC2)NC(=O)CSC[C@@H](C(=O)NCC(N)=O)NC1=O` [Example 107] ({CH2CO}-[Ala(morpholin-4-yl)][Bip][Bip][Sar]YDRV[3Pal]VYLCG-NH2; thioether N-13) the IC50 was 50 to 200 nM.
In the case of `CC(C)C[C@@H]1NC(=O)[C@H](CCCNC(=N)N)NC(=O)[C@H](C(C)C)NC(=O)[C@H](Cc2ccccn2)NC(=O)[C@H](C(C)C)NC(=O)[C@H](CCCNC(=N)N)NC(=O)[C@H](CC(=O)O)NC(=O)[C@@H]2CCCN2C(=O)CN(C)C(=O)[C@H](Cc2ccc(-c3ccccc3)cc2)NC(=O)[C@H](Cc2ccc(-c3ccccc3)cc2)NC(=O)[C@H](C(C)(C)O)NC(=O)CSC[C@@H](C(=O)NCC(N)=O)NC1=O` [Example 108] ({CH2CO}-[Val(3-OH)][Bip][Bip][Sar]PDRV[2Pal]VRLCG-NH2; thioether N-13), the IC50 is reported as 50 to 200 nM.
With `CC(C)C[C@@H]1NC(=O)[C@H](Cc2ccc(O)cc2)NC(=O)[C@H](C(C)C)NC(=O)[C@H](Cc2ccccn2)NC(=O)[C@H](C(C)C)NC(=O)[C@H](CCCNC(=N)N)NC(=O)[C@H](CC(=O)O)NC(=O)[C@H](Cc2ccc(O)cc2)NC(=O)CN(C)C(=O)[C@H](Cc2ccc(-c3ccccc3)cc2)NC(=O)[C@H](Cc2ccc(-c3ccccc3)cc2)NC(=O)[C@H](CN2CCOCC2)NC(=O)CSC[C@@H](C(=O)NCC(N)=O)NC1=O` [Example 109] ({CH2CO}-[Ala(morpholin-4-yl)][Bip][Bip][Sar]YDRV[2Pal]VYLCG-NH2; thioether N-13) the IC50 was 200 to 2000 nM.
Work on `CC(C)C[C@@H]1NC(=O)[C@H](Cc2ccc(O)cc2)NC(=O)[C@H](C(C)C)NC(=O)[C@@H]2CCCN2C(=O)[C@H](Cc2ccc(O)cc2)NC(=O)[C@H](CCCNC(=N)N)NC(=O)[C@H](CC(=O)O)NC(=O)[C@H](Cc2ccc(O)cc2)NC(=O)CN(C)C(=O)[C@H](Cc2ccc(-c3ccccc3)cc2)NC(=O)[C@H](Cc2ccc(-c3ccccc3)cc2)NC(=O)[C@H](C(C)(C)O)NC(=O)CSC[C@@H](C(=O)NCC(N)=O)NC1=O` [Example 110] ({CH2CO}-[Val(3-OH)][Bip][Bip][Sar]YDRYPVYLCG-NH2; thioether N-13) yielded an IC50 of 50 to 200 nM.
Work on `CC(C)C[C@@H]1NC(=O)[C@H](Cc2ccc(O)cc2)NC(=O)[C@H](C(C)C)NC(=O)[C@@H]2CCCN2C(=O)[C@H](Cc2ccc(O)cc2)NC(=O)[C@H](CCCNC(=N)N)NC(=O)[C@H](CC(=O)O)NC(=O)[C@@H]2CCCN2C(=O)CN(C)C(=O)[C@H](Cc2ccc(-c3ccccc3)cc2)NC(=O)[C@H](Cc2ccc(-c3ccccc3)cc2)NC(=O)[C@H](C(C)(C)O)NC(=O)CSC[C@@H](C(=O)NCC(N)=O)NC1=O` [Example 111] ({CH2CO}-[Val(3-OH)][Bip][Bip][Sar]PDRYPVYLCG-NH2; thioether N-13) yielded an IC50 of 200 to 2000 nM.
`CC(C)C[C@@H]1NC(=O)[C@H](Cc2ccc(O)cc2)NC(=O)[C@H](C(C)C)NC(=O)[C@@H]2CCCN2C(=O)[C@H](Cc2ccc(N)cc2)NC(=O)[C@H](CCCNC(=N)N)NC(=O)[C@H](CC(=O)O)NC(=O)[C@H](Cc2ccc(O)cc2)NC(=O)CN(C)C(=O)[C@H](Cc2ccc(-c3ccccc3)cc2)NC(=O)[C@H](Cc2ccc(-c3ccccc3)cc2)NC(=O)[C@H](CN2CCOCC2)NC(=O)CSC[C@@H](C(=O)NCC(N)=O)NC1=O` [Example 112] ({CH2CO}-[Ala(morpholin-4-yl)][Bip][Bip][Sar]YDR[Phe(4-NH2)]PVYLCG-NH2; thioether N-13) was tested, and the IC50 was 200 to 2000 nM.
`CC(C)C[C@@H]1NC(=O)[C@H](Cc2ccc(O)cc2)NC(=O)[C@H](C(C)C)NC(=O)[C@@H]2CCCN2C(=O)[C@H](Cc2ccc(N)cc2)NC(=O)[C@H](CCCNC(=N)N)NC(=O)[C@H](CC(=O)O)NC(=O)[C@@H]2CCCN2C(=O)CN(C)C(=O)[C@H](Cc2ccc(-c3ccccc3)cc2)NC(=O)[C@H](Cc2ccc(-c3ccccc3)cc2)NC(=O)[C@H](CN2CCOCC2)NC(=O)CSC[C@@H](C(=O)NCC(N)=O)NC1=O` [Example 113] ({CH2CO}-[Ala(morpholin-4-yl)][Bip][Bip][Sar]PDR[Phe(4-NH2)]PVYLCG-NH2; thioether N-13) was tested, and the IC50 was 200 to 2000 nM.
Work on `CC(C)C[C@@H]1NC(=O)[C@H](CCCNC(=N)N)NC(=O)[C@H](C(C)C)NC(=O)[C@@H]2CCCN2C(=O)[C@H](Cc2cccnc2)NC(=O)[C@H](CCCNC(=N)N)NC(=O)[C@H](CC(=O)O)NC(=O)[C@H](Cc2ccc(O)cc2)NC(=O)CN(C)C(=O)[C@H](Cc2ccc(-c3ccccc3)cc2)NC(=O)[C@H](Cc2ccc(-c3ccccc3)cc2)NC(=O)[C@H](CN2CCOCC2)NC(=O)CSC[C@@H](C(=O)NCC(N)=O)NC1=O` [Example 114] ({CH2CO}-[Ala(morpholin-4-yl)][Bip][Bip][Sar]YDR[3Pal]PVRLCG-NH2; thioether N-13) yielded an IC50 of 200 to 2000 nM.
